The values below come from patent publication US8597646B2, “Methods and compositons featuring TGF-beta antagonists for the treatment of marfan syndrome and associated disorders” (The Johns Hopkins University, priority 2005, dated 2013).

What all share (format): in vivo, mouse
The subject of test [1] is C1039G/+ mice. The test can be described thus: Aortic root growth by echocardiography in C1039G/+ mice, 4 months of treatment. How it is done: Markers of TGFβ antagonism have included reduced plasma levels of free TGFβ, reduced intracellular initiation of the TGFβ signaling cascade, and reduced tissue expression of TGFβ-responsive genes. […] Three independent measurements of the aortic root were made from the long axis echo view in systole at each of 3 time points (baseline, 2 and 4 months of treatment; FIG. 8A). All analyses were performed blinded to genotype and treatment arm. […] This represents the first therapeutic strategy for MFS that derives from interrogation of disease pathogenesis and the first possibility for primary prevention of disease manifestations.

The subject of test [2] is Fbn1C1039G/+ mice. The test can be described thus: Prenatal treatment with losartan and propranolol, aorta of Fbn1C1039G/+ mice. The conditions noted are these: prenatal start. An excerpt: Treatment of the mothers continued throughout lactation and was maintained in the pups after weaning. Mice were killed at 10 months of age. […] The average aortic wall thickness for untreated wild-type animals was smaller than that in placebo-treated Fbn1C1039G/+ mice (P<0.0001) but was indistinguishable from that in losartan-treated Fbn1C1039G/+ mice (P=0.24, FIG. 20E).

Test [3] deals with C1039G/+ mice. The test can be described thus: Aortic wall histology (elastic matrix architecture) in treated C1039G/+ mice. The conditions noted are these: 4 months of treatment.
In test [4] the test system is Fbn1C1039G/+ mice. The test can be described thus: Postnatal treatment with losartan and propranolol, aorta of Fbn1C1039G/+ mice. The text has this: However, before treatment, the aortic diameter in Fbn1C1039G/+ mice was always greater than in untreated wild-type mice (1.59±0.11 mm; P<0.002).
Three independent aortic root measurements were obtained for each mouse every 2 months during the 6 months of treatment. Mice were killed at 8 months of age. […] The aortic root growth rate over this period was less in the wild-type mice than in the placebo-treated Fbn1C1039G/+ mice (P<0.0001, FIG. 21I).

“Also recorded” adds a separate entry of the source.

On to `CC(C)NCC(O)COc1cccc2ccccc12` (stereo not drawn) [propranolol], for which, in the test on C1039G/+ mice [1] (C1039G/+ mice from 7 weeks of age, losartan 50 mg/kg or propranolol 40 mg/kg, aortic root, echo, placebo 0.44±0.09), the “Aortic growth during the 4 months of treatment” value was determined as 0.22±0.06 mm. The “Improvement in any parameter” value with C1039G/+ mice [1] (propranolol dose with the same antihypertensive effect as losartan) is given as “little improvement”. Moreover, the Aortic dilatation entry with Fbn1C1039G/+ mice [2] (10 months) is recorded as “marked aortic dilatation”. Further, in the test on Fbn1C1039G/+ mice [2] (10 months of treatment), the “Aortic wall architecture score” value was “not influenced” and the “Average aortic wall thickness” value is listed as “indistinguishable from that in the placebo group”. For the same compound, the “Elastic fiber fragmentation / architecture (VVG staining)” value in the test with Fbn1C1039G/+ mice [2] (drinking water, killed at 10 months) is given as “observed; also recorded: Marked elastic fiber disruption”. In addition, the “Elastic matrix architecture / histologic parameters of the aorta” value with C1039G/+ mice [3] is given as “did not improve”. Further, in the test on Fbn1C1039G/+ mice [4] (6 months of treatment), the “Aortic wall / elastic fiber architecture” value is listed as “no discernable effect” and the Aortic wall thickness result is “no discernable effect”. Moreover, the “Aortic root growth rate” value in the test on Fbn1C1039G/+ mice [4] (during 6 months of treatment) was “slower rate of aortic root growth than did placebo-treated animals; also recorded: less than that with placebo, yet remains greater than that seen in wild-type mice”. Further, the “TGF-β signaling in aortic media (nuclear pSmad2)” value in the test on Fbn1C1039G/+ mice [4] (from 7 weeks of age, 6 months) was “Marked increase in nuclear staining for pSmad2”. Moreover, the “Elastic fiber fragmentation (VVG staining)” value in the test with Fbn1C1039G/+ mice [4] (from 7 weeks of age, 6 months, drinking water) was “diffuse fragmentation of elastic fibers”.
